Holding throughout (format): functional
Holding throughout (conditions): read-out: LD50 (the source's name)

Test [1] relates to Leishmania donovani. In words: Antileishmanial activity against Leishmania donovani promastigotes by MTT assay.
In test [2] the test system is Leishmania donovani. In words: Antileishmanial activity against miltefosine-resistant Leishmania donovani promastigotes by MTT assay.
Test [3] has as its system Leishmania mexicana. In words: Antileishmanial activity against Leishmania pifanoi axenic amastigotes by MTT assay. (In general: Tetrazolium assays rely on reduction of a dye to a coloured formazan, in cell work by metabolically active cells.)
The test system of test [4] is Leishmania mexicana. In words: Antileishmanial activity against miltefosine-resistant Leishmania pifanoi axenic amastigotes by MTT assay.

Consider `C[N+](C)(C)CCOP(=O)([O-])OCCCCCCCCCCCCCCCCS`, for which the LC50 in the test with Leishmania donovani [1] was 5.1 µM; with Leishmania donovani [2], above 50 µM; in the test on Leishmania mexicana [3] it was 5.5 µM; with Leishmania mexicana [4] it was above 50 µM.

With `CCCCCCCCCCCCCCCCOP(=O)([O-])OCC[N+](C)(C)C` [MILTEFOSINE], the LC50 in the test on Leishmania donovani [1] is 5.3 µM; with Leishmania donovani [2], above 50 µM; in the test with Leishmania mexicana [3] it was 5 µM; in the test with Leishmania mexicana [4] it was above 50 µM.

These data come from ChEMBL document CHEMBL1146908, “Synthesis of 16-mercaptohexadecylphosphocholine, a miltefosine analog with leishmanicidal activity” (2006).
